Data reported in patent US20220195432A9 (priority 2020, published 2022).

System: SARS-CoV2
Assay: SARS-CoV2 infection of human ACE2 mice, paquinimod nasal drop group versus control
Format: in vivo
Settings: human ACE2 mice, paquinimod nasal drop group compared with control group, FIG. 17

CCc1cccc2c1c(O)c(C(=O)N(CC)c1ccccc1)c(=O)n2C [paquinimod]
resistance to SRAS-CoV2: significantly more resistant
